Assay results published in PubChem BioAssay (NCI).
Values joined by “and” are separate entries in the source; they are usually repeats but may differ in a detail not shown here. Identical values can stand only once.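 Five compound concentrations were applied to cells in 96-well plates for 48 hours; endpoints were derived by simple linear interpolation of the resulting dose-response curve. GI50 marks 50% less growth. Definition used: TGI = concentration required for complete inhibition of growth.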

Legend:
Assay in all cases: NCI anticancer screen, dose series, 48 h
SK-OV-3 ovarian = tested on: SK-OV-3 ovarian
SN12C renal = tested on: SN12C renal
RPMI-8226 leukemia = tested on: RPMI-8226 leukemia
M14 melanoma = tested on: M14 melanoma
TK-10 renal = tested on: TK-10 renal
HL-60(TB) leukemia = tested on: HL-60(TB) leukemia
HCC-2998 colon = tested on: HCC-2998 colon
HS 578T breast = tested on: HS 578T breast
NCI/ADR-RES ovarian = tested on: NCI/ADR-RES ovarian
MCF7 breast = tested on: MCF7 breast

| Compound | GI50 (SK-OV-3 ovarian) | TGI (SK-OV-3 ovarian) | GI50 (SN12C renal) | TGI (SN12C renal) | GI50 (RPMI-8226 leukemia) | TGI (RPMI-8226 leukemia) | GI50 (M14 melanoma) | TGI (M14 melanoma) | GI50 (TK-10 renal) | TGI (TK-10 renal) | GI50 (HL-60(TB) leukemia) | TGI (HL-60(TB) leukemia) | TGI (HCC-2998 colon) | TGI (HS 578T breast) | TGI (NCI/ADR-RES ovarian) | TGI (MCF7 breast) | GI50 (HS 578T breast) | GI50 (NCI/ADR-RES ovarian) | GI50 (HCC-2998 colon) | GI50 (MCF7 breast) |
| --- | --- | --- | --- | --- | --- | --- | --- | --- | --- | --- | --- | --- | --- | --- | --- | --- | --- | --- | --- | --- |
| CC(=O)[CH-]C(=O)c1ccccc1.CC(=O)[CH-]C(=O)c1ccccc1.[CH2-]CCC.[CH2-]CCC.[Sn+4] | 2.27 µM | 3.99 µM | 1.14 µM | 2.68 µM | 0.22 µM | 0.567 µM | 1.16 µM | 2.62 µM | 1.06 µM | 2.31 µM | 0.322 µM | 1.09 µM | – | – | – | – | – | – | – | – |
| CC1(C)CC(=O)c2c(oc3cc(O)c(O)cc23)C1 | – | > 100 µM | – | > 100 µM | – | 80.4 µM | – | 53.9 µM | – | > 100 µM | – | 48.5 µM | > 100 µM | – | – | – | – | – | – | – |
| C/C(=N/NC(=O)CC(=O)N(C(=O)c1ccccc1Cl)c1ccc(C)cc1)c1cc2ccccc2oc1=O | – | – | – | > 100 µM | – | – | – | > 100 µM | – | > 100 µM | – | > 100 µM | > 100 µM | – | – | – | – | – | – | – |
| CC1=C(C(=O)CC(=O)C(=O)NC2C3CC4CC(C3)CC2C4)Sc2ccccc2N1 (stereo unspecified) | – | > 31.6 µM | – | > 100 µM | – | > 100 µM | – | > 100 µM | – | > 100 µM | – | > 100 µM | > 100 µM | – | – | – | – | – | – | – |
| COc1cc([C@H]2c3[nH]c4ccccc4c3C[C@H]3COC(=O)N32)cc(OC)c1O | – | – | – | 59.7 µM | – | 11.1 µM | – | > 100 µM | – | 27 µM | – | 14.5 µM | 27 µM | 44.7 µM | > 100 µM | 37.1 µM | – | – | – | – |
| COc1ccc(-c2cc(/C=C/C(=O)c3cc(OC)c(OC)c(OC)c3)[nH]n2)cc1OC | 5.47 µM | 19 µM | 1.77 µM | 3.83 µM | 0.298 µM | 1.66 µM | 1.8 µM | 3.69 µM | 3.27 µM | 11.8 µM | 1.69 µM | 14.8 µM | 3.4 µM | 22.2 µM | 37 µM | – | 2.91 µM | 2.69 µM | 1.9 µM | – |
| O=C(/C=C/c1cn(-c2ccccc2)nc1-c1ccc([N+](=O)[O-])cc1)c1ccc(Cl)cc1 | 7.83 µM | > 77.3 µM | 4.54 µM | > 100 µM | – | – | – | – | 3.09 µM | 13.4 µM | – | > 100 µM | > 100 µM | 5.64 µM | > 100 µM | – | 1.92 µM | 3.86 µM | > 100 µM | – |
| Cc1ccc(/C=C2\CNC/C(=C\c3ccc(C)cc3)C2=O)cc1 | 3.81 µM | 6.9 µM and 22.1 µM | 1.77 µM | 3.24 µM and 6.25 µM | – | 0.69 µM | – | 11.2 µM | 0.509 µM | 2.2 µM and 13.9 µM | 1.41 µM | 6.46 µM and 2.53 µM | 2.77 µM and 3.07 µM | > 100 µM | – | > 100 µM | – | – | 1.42 µM | – |
| O=c1[nH]c2cc(Cl)c(Cl)cc2n2cc3ccccc3c12 | 18 µM | 33.1 µM | 15.7 µM | 29.4 µM | 22.3 µM | 49.2 µM | 23 µM | 39.7 µM | 16.8 µM | 30.4 µM | – | – | 18.6 µM | 53 µM | 31.6 µM | 39.5 µM | 20.1 µM | 17.7 µM | 0.813 µM | 21.4 µM |
| c1cnc2[nH]cc(-c3csc(-c4cn(CCCN5CCCCC5)c5ccccc45)n3)c2c1 | 1.8 µM | 3.36 µM | 1.68 µM | 3.22 µM | 2.08 µM | 4.63 µM | 1.76 µM | 3.45 µM | 2.22 µM | 3.79 µM | 1.88 µM | 3.74 µM | – | 7.22 µM | – | – | 2.34 µM | – | – | – |
| COc1cc(O)c(C(C)=O)c(O)c1 | – | > 100 µM | – | > 100 µM | – | – | – | > 100 µM | – | > 100 µM | – | – | > 100 µM | > 100 µM | > 100 µM | > 100 µM | – | – | – | – |
| CCN(CC)CCOc1ccc(/C=C2\CC3C4CC=C5C[C@@H](OC(C)=O)CC[C@]5(C)C4CC[C@]3(C)C2=O)cc1OC (stereo partly specified) | 29.5 µM | 95.1 µM | 12.6 µM | 30.1 µM | 1.71 µM | 4.63 µM | 2.09 µM | 4.36 µM | 2.53 µM | 6.1 µM | – | – | 14.1 µM | 25.7 µM | > 100 µM | – | 7.77 µM | 5.08 µM | 3.74 µM | – |
| COc1ccc2[nH]c3c(=O)[nH]ncc3c2c1 | – | > 100 µM | – | – | – | > 100 µM | – | > 100 µM | – | > 100 µM | – | > 100 µM | > 100 µM | – | – | – | – | – | – | – |
| Cc1ccccc1NC(=O)C(=O)CC(=O)c1ccc([N+](=O)[O-])cc1 | – | > 100 µM | – | > 100 µM | – | > 100 µM | – | > 100 µM | – | > 100 µM | – | – | > 100 µM | – | – | – | – | – | – | – |
| CC(=O)OCCC(O[Si](c1ccccc1)(c1ccccc1)C(C)(C)C)C(C)(C)O (stereo unspecified) | – | > 100 µM | – | 34.2 µM | – | 63 µM | – | > 100 µM | – | > 100 µM | – | – | – | – | – | – | – | – | – | – |
| CCOC(=O)C[C@@]12CCCNC1(C)CCc1ccccc12 (stereo partly specified) | – | > 100 µM | – | > 100 µM | – | > 100 µM | – | > 100 µM | – | > 100 µM | – | > 100 µM | – | – | – | – | – | – | – | – |
| COC(=O)C1(F)C(=O)NC(=O)NC1OC (stereo unspecified) | – | > 100 µM | – | > 100 µM | – | > 100 µM | – | – | – | > 100 µM | – | > 100 µM | – | – | – | – | – | – | – | – |
| CC(C)(C)[Si](C)(C)OCC1OC(n2cnc3c(N)ncnc32)C(O)C1O (stereo unspecified) | – | > 100 µM | – | > 100 µM | – | > 100 µM | – | > 100 µM | – | > 100 µM | – | > 100 µM | – | > 100 µM | > 100 µM | > 100 µM | – | – | – | – |
| O=C1C(c2ccccc2)=C(c2ccccc2)[C@H](c2ccccc2)[C@]1(Cc1nnn(-c2ccc([N+](=O)[O-])cc2)c1N1CCOCC1)c1ccccc1 | – | > 37.5 µM | – | > 37.5 µM | – | > 37.5 µM | – | > 37.5 µM | – | > 37.5 µM | – | > 37.5 µM | > 37.5 µM | – | – | – | – | – | – | – |
| CC(C)(C)c1cc(CCC(=O)Nc2ccc(Cl)cc2Cl)nc(N)n1 | – | > 100 µM | – | > 100 µM | – | – | – | > 100 µM | – | – | – | > 100 µM | > 100 µM | – | – | – | – | – | – | – |
| CCCCCCCCCC(=O)Oc1cccc2onc(C)c12 | – | > 100 µM | – | > 100 µM | – | > 100 µM | – | > 100 µM | – | > 100 µM | – | 56.4 µM | > 100 µM | – | – | – | – | – | – | – |
| NC(=O)c1c[se]c(C2OC(COP(=O)(O)CP(=O)(O)OCC3OC(n4cnc5c(N)ncnc54)C(O)C3O)C(O)C2O)n1 (stereo unspecified) | – | > 100 µM | – | > 100 µM | – | – | – | > 100 µM | – | – | – | > 100 µM | – | – | – | – | – | – | – | – |
